Test results from patent US12037583B2, “Compositions and methods for immunooncology” (Novartis AG, priority 2015, dated 2024).

How the values were obtained:
PDCD1 = assay: NGS editing of PDCD1 by dgRNA in HEK cells stably expressing Cas9; format: cell-based, human; details: at least 3 experiments;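 also: dgRNA lipofected into Cas9-expressing HEK cells, lysed after 24 h, target amplicon sequenced, editing = reads carrying insertions or deletions as percent of all reads including wild type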
Source text: Transfection of Cas9GFP-expressing HEK293 cells (HEK-293_Cas9GFP) was used for primary screening of target specific crRNAs. […] Selected crRNAs were chemically synthesized and delivered in a 96 well format. HEK-293-Cas9GFP cells were transfected with target crRNAs comprising a flagpole region of SEQ ID NO: 6607 in a 1:1 ratio with stock trRNA of SEQ ID NO: 6660. The transfection was mediated using lipofection technology according to manufacturer's protocol (DharmaFECT Duo, GE LifeSciences; or RNAiMax, LifeTechnologies). Transfected cells were lysed 24 h following lipofection and editing (e.g., cleavage) was detected within lysates with the T7E1 assay and/or next generation sequencing (NGS; below).
Editing of CRISPR systems containing dgRNA molecules comprising targeting domains to sequences of PDCD1 were tested for editing in HEK (gRNA delivered to cells stably expressing Cas9) and CD3+ T cells (gRNA and Cas9 delivered as RNP) according to the methods described herein.
All mean editing % are as measured by NGS and are based on at least 3 experiments.

[1] = test system: potential off-target genomic sites; assay: Off-target editing assessment by oligo insertion assay in Cas9-expressing HEK293 cells; format: cell-based, human; details: dual guide RNA, FIG. 63, 64
Source text: A total of 34 guideRNAs (dual guide RNAs comprising the indicated targeting domain, modified or unmodified, as indicated) targeting B2M (5), TRAC (9), TRBC2 (2), PDCD1 (8), FKBP1A (5), or CIITA (5) were screened in the Cas9-expressing HEK293 cells described above in Example 1, and the results are plotted in FIG. 63 and FIG. 64.

FKBP1A = assay: S6 phosphorylation by flow cytometry with or without RAD001 after FKBP1A editing; format: cell-based, human; details: primary T cells; 2.5 nM RAD001 3 hours; FIG. 54
Description: After thawing, isolated human T cells were activated with CD3/CD28 beads for 3 days at a bead to cell ratio of 3:1. Cells were then electroporated with RNP containing dual guide RNA molecules (as indicated, as described above in these examples), and Cas9 protein using the Neon instrument with the 100 ul tip kit. RNPs were prepared in the following manner. crRNA and trRNA (10 ul of each at 100 uM) were heated in separate tubes to 95 degrees C. for two minutes and then cooled for 5 minutes at room temperature. […]
After electroporation, cells were then transferred into a 6-well plate with 2 ml of T cell media with beads at a 3:1 bead to cell ratio. […] The phosphorylation of S6 was detected by flow cytometry, and was used as an indication of immunosuppressing by RAD001. […] Cells were then washed twice with PBS and analyzed by flow cytometry on the Becton Dickenson LSR Fortessa using FloJo-V10 software.
After electroporation cells were treated with 2.5 nM RAD001 (upper panel) or left untreated (lower panel) and the impact on mTOR pathway inhibition was evaluated by analyzing S6 phosphorylation (pS6) by flow cytometry. […] Positive staining for pS6 (shown in the gating trace) was determined by gating above the fluorescence level seen in a control stained with isotype antibody (not shown). Quantitation of S6 phosphorylation from the flow cytometry data is shown in the graph in the lower panel. […]

CD3E = assay: NGS editing and frameshift edit of CD3E by dgRNA in HEK-293(Cas9) cells; format: cell-based, human; details: dgRNA to CD3E in HEK-293(Cas9) cells
Source text: Transfection of Cas9GFP-expressing HEK293 cells (HEK-293_Cas9GFP) was used for primary screening of target specific crRNAs. In this example, target specific crRNAs were designed and selected for primary screening using defined criteria including in silico off-target detection, e.g., as described herein. Selected crRNAs were chemically synthesized and delivered in a 96 well format. HEK-293-Cas9GFP cells were transfected with target crRNAs comprising a flagpole region of SEQ ID NO: 6607 in a 1:1 ratio with stock trRNA of SEQ ID NO: 6660. The transfection was mediated using lipofection technology according to manufacturer's protocol (DharmaFECT Duo, GE LifeSciences; or RNAiMax, LifeTechnologies). Transfected cells were lysed 24 h following lipofection and editing (e.g., cleavage) was detected within lysates with the T7E1 assay and/or next generation sequencing (NGS; below).
PCR primers were first designed around the target site, and the genomic area of interest PCR amplified. Additional PCR was performed according to manufacturer's protocols (Illumina) to add the necessary chemistry for sequencing. The amplicons were then sequenced on an Illumina MiSeq instrument. The reads were then aligned to the human reference genome (e.g., hg38) after eliminating those having low quality scores. From the resulting files containing the reads mapped to the reference genome (BAM files), reads which overlap the target region of interest were selected and the number of wild type reads versus the number of reads which contain an insertion or deletion was calculated. The editing percentage was then defined as the total number of reads with insertions or deletions over the total number of reads, including wild type. To determine the pattern of insertions and/or deletions that resulted from the edit, the aligned reads with indels were selected and the number of a reads with a given indel were summed.
dgRNA molecules comprising the indicated targeting domain were chemically synthesized, and editing assessed in HEK-293 cells by NGS as described in Example 1. […] Several gRNA molecules were able to edit more than 50% of the cells, including producing a frameshift mutation in more than 50% of the cells.

CIITA [2] = assay: NGS editing and frameshift edit of CIITA by dgRNA in HEK293 cells expressing Cas9; format: cell-based, human; details: HEK293 cells stably expressing Cas9, dgRNA to CIITA; for Avg. % Edit: N = 3; for Avg. % FS: frameshift edit
Description: Editing of CIITA with dgRNAs targeted to the CIITA gene were assayed in HEK293 cells engineered to express Cas9, as described above in Example 1.

CIITA [3] = assay: NGS editing and frameshift edit of CIITA in CD3+ primary human T cells (RNP); format: cell-based; details: dgRNA targeting CIITA delivered as RNP to CD3+ T cells
Source text: The frequency of insertions or deletions is indicated (% indels) and the percentage of these edits that result in frameshifting of the coding sequence is shown (% frameshift edits).
PBMC were isolated from human blood (Hemacare) by using centrifugation method using Ficoll. […] These cells were aliquoted and frozen. These frozen cell aliquots were then thawed and activated using CD3/CD28 beads (DynaBeads Invitrogen Cat #111.41D) at bead to cell ratio of 3:1. On day 2 or day 3 after bead activation, 200,000 cells were removed from culture for electroporation. […] Next 1 μL of 100 μM crRNA was added, mixed and incubated for 10 min at 37° C. If more than one RNP was added during the electroporation step, each RNP with a crRNA targeting a different gene was assembled separately using the above method, then combined together with the addition of Cas9 buffer in order to obtain different RNP final concentrations for different conditions. For “triple editing”, i.e. simultaneous addition of 3 RNPs targeting different genes, details of RNP quantities are provided in the figures. The assembled RNPs were then mixed with 200,000 cells in 10 ul of T Buffer (neon transfection system 10 ul Kit). Electroporation was performed by Neon electroporator using Neon® Transfection System 10 μL Kit (MPK1096) at 1600V, 10 ms, 3 pulses. […] To evaluate the editing frequency and sequence changes resulting from gene editing in the above prepared T cells, genomic DNA was isolated and subjected to sequencing. Briefly, frozen cell pellets were thawed and processed using DNeasy Blood & Tissue Kit (Qiagen, 69506) to isolate genomic DNA. Eluted DNA was used to run PCR using Titanium Taq PCR kit (Clontech Laboratories, 639211) and primers in Table 27.
PCR product was purified using QIAquick PCR Purification Kit (Qiagen, 28104). […] PCR amplicons were subjected to standard Nextera NGS library prep (Illumina) and sequenced with paired-end reads on an Illumina MiSeq sequencer.

CD3 delta and CD3 gamma = assay: Loss of surface CD3 by flow cytometry in primary human CD3+ T cells after CD3 delta / CD3 gamma RNP; format: cell-based; details: day 7 post-electroporation; anti-CD3 OKT3
Description: Editing of CRISPR systems containing dgRNA molecules comprising targeting domains to sequences of CD3 delta and CD3 gamma were tested for editing in primary CD3+ T cells (gRNA/Cas9 RNP delivered by electroporation) according to the methods described herein. Surface expression of CD3 after editing was assayed by flow cytometry. Briefly, edited CD3+ cells were stained with antibodies against CD3 (OKT3, BioLegend) at day 7 post-electroporation. Expression of CD3 in live cells (identified using 7AAD exclusion) relative to the un-edited controls was used to determine frequency of RNP editing. The results are reported in FIG. 65 and FIG. 66, which include flow cytometry data showing the % editing in primary human CD3+ T cells as measured by loss of surface expression of CD3.

| Substance | Avg. % Edit (CIITA [2]) [%] | Avg. % FS (CIITA [2]) [%] | Editing % (CIITA [3]) [%] | Frameshift Edit % (CIITA [3]) [%] | other results |
| --- | --- | --- | --- | --- | --- |
| CR000902: dgRNA targeting domain to PDCD1 (guide GCCCACGACACCAACCACCA; targeting domain within dual guide RNA, chemistry not given here, further chemistry not given here; listed as Homo sapiens) |  |  |  |  | HEK (NGS) % Editing Mean (PDCD1): 72%; off-target editing in oligo insertion assay, in words [1]: no off-target editing was detected |
| CR002122: dgRNA targeting domain to FKBP1A (guide GUUCUUUUCACAGAUGAGUG; targeting domain within dual guide RNA, chemistry not given here, further chemistry not given here; listed as Homo sapiens) |  |  |  |  | S6 phosphorylation under RAD001, in words (FKBP1A): refractory to the inhibitory effects of the rapalog RAD001 |
| CR002230 (guide AGGCCUCUCUACUUCCUGUG; targeting domain within dual guide RNA, chemistry not given here, further chemistry not given here; listed as Homo sapiens) |  |  |  |  | Avg. % Edit (any indel) (CD3E): 20.64%; Avg. Frameshift % (CD3E): 20.10% |
| CR002231 (guide GGCCUCUCUACUUCCUGUGU; targeting domain within dual guide RNA, chemistry not given here, further chemistry not given here; listed as Homo sapiens) |  |  |  |  | Avg. % Edit (any indel) (CD3E): 13.83%; Avg. Frameshift % (CD3E): 12.37% |
| CR002995 (guide GAUAUUGGCAUAAGCCUCCC; chemistry not given here; listed as Homo sapiens) | 52.74 | 43.64 | 3.1 | 2.5 |  |
| CR003001 (guide UUCCAGGACUCCCAGCUGGA; chemistry not given here; listed as Homo sapiens) | 47.64 | 43.30 | 36.3 | 32.0 |  |
| CR003007: dgRNA targeting domain to CIITA (guide AUAGGACCAGAUGAAGUGAU; chemistry not given here; listed as Homo sapiens) | 43.64 | 32.22 | 31.6 | 28.8 |  |
| CR003013 (guide UGCCGGAAGCUCCUCUGGGA; chemistry not given here; listed as Homo sapiens) | 37.75 | 29.94 | 11.5 | 9.0 |  |
| CR005334: dgRNA targeting domain to CD3 delta or CD3 gamma (guide ACUUCGAUAAUGAACUUGCA; chemistry not given here; listed as Homo sapiens) |  |  |  |  | % loss of CD3 (CD3 delta and CD3 gamma): 98% |
